Results from US3959283A, “Amino-derivatives of 1,4-benzodioxan” (Laboratoire L. Lafon, priority 1974, dated 1976).
Where a name gives a salt, the structure may show the parent alone. Blank lines part the entries; values can stand above or below the molecule they belong to.

Legend:
adrenergic receptors [1] = assay: α-blocking activity, parenteral (LL 1756); format: in vivo
adrenergic receptors [2] = assay: Effect on responses to adrenalin, acetylcholine, isoprenalin and vagus stimulation (product of Example 2); format: in vivo, dogs
vertebral artery = assay: Vasodilating properties, injection into the vertebral artery; format: in vivo, dogs
Experimental: On injection into the vertebral artery, no effect is observed at doses of less than 1 mg/kg. At a dose of 10 mg/kg, the flow rate increases by 37% and at a dose of 20 mg/kg it only increases by 27%. At these two doses, the arterial pressure decreases respectively by 14 and 28% although no effect had been observed during the injection into the femoral artery.

[3] = system: vertebral, femoral and mesenteric arteries; assay: Vasodilating properties, intravenous administration, arterial flow rates; format: in vivo, dogs; details: for increase in vertebral flow rate: 0.25 mg/kg perfused i.v.
Experimental: When administered intravenously, the following results were observed:
A third test is carried out by injecting, without stopping, 0.5, 1, 2 and 4 mg/kg, that is to say a total of 7.5 mg/kg.

dogs [4] = assay: Coronary flow rate and haemodynamics in anaesthetised dogs, intravenous perfusion; format: in vivo
Experimental: (§2) During the series of pharmacological tests, the following parameters were used:
(§3) Arterial pressure (abbreviated to AP): this parameter, expressed in mm Hg) is evaluated in accordance with the usual conditions.
Arterial resistance: this parameter (expressed in dynes/sec./cm^^-5) is calculated according to the ratio [formula]
Cardiac index: this parameter is expressed in ml/min./kg.
Systolic index: this parameter is equal to the ratio cardiac index/frequency.
Cardiac work: this parameter (expressed in kgm/min.) is calculated according to the relationship: Cardiac work = average AP (mm Hg) × 1.36 = cardiac output (1/min.) × 10^^-3.
Ratio dp/dt: this parameter corresponds to the variation in pressure expressed in mm Hg per second (in English: Rate of rise of left ventricular pressure).
The technique used to measure the ratio dp/dt is as follows:
The cardiac output is determined in Beagle dogs weighing 10 to 15 kg, anesthetised with pentobarbital, by injecting Cardiogreen (1 mg in 0.5 ml) into the right ventricle. A catheter introduced via the carotid artery into the aorta makes it possible to aspirate arterial blood at the rate of 25 ml/min. and to pass it in front of the photoelectric cell of a Beckman cardiodensitometer. The results are interpreted in accordance with the Hamilton method.

adrenergic receptors [5] = assay: Oral α-blocking activity in dogs (hypertensive effects of adrenalin); format: in vivo; details: orally
femoral artery = assay: Vasodilating properties, injection into the femoral artery; format: in vivo, dogs
Experimental: On injection into the femoral artery, no effect is observed at doses of less than 100 μg/kg. […] At these doses, no effect is observed on the arterial pressure AP measured in accordance with the usual conditions.

man [6] = assay: Clinical studies in man, tablets or injectable ampoules (product of Example 2); format: in vivo; details: tablets (50 mg) or injectable ampoules (10 mg)
Excerpt: In clinical studies, good results were obtained in man by administering tablets such as: […]

man [7] = assay: Administration to man in vascular complaints (product of Example 3); format: in vivo; details: tablets containing 20 mg, 2 to 3 per day
adrenergic receptors [8] = assay: Reversal of hypertensive effect of adrenalin (α-blocking), product of Example 3; format: in vivo, dogs
dogs [9] = assay: Cardiovascular properties of the product of Example 3 in dogs; format: in vivo
Experimental: as §3
When administered intravenously to dogs at doses ranging from 1 mg to 13 mg/kg, the following results are observed:

adrenergic receptors [10] = assay: Reversal of hypertensive effect of adrenalin (α-blocking), product of Example 8; format: in vivo; details: dogs
dogs [11] = assay: Intravenous perfusion in dogs anaesthetised with Nembutal (product of Example 8); format: in vivo; details: 2.5 mg/kg i.v. over 5 minutes
Experimental: as §2, §3
The product of Example 8 was perfused intravenously over the course of 5 minutes at doses of 2.5 and 5 mg/kg.

[12] = system: femoral and vertebral arteries; assay: Oral administration, arterial flow rates (product of Example 8); format: in vivo, dogs; details: orally
central vagus = assay: Effect on the amines and reflexes: stimulation of the central vagus; details: in vivo
Excerpt: (§1) In Table III below, the effects of the products on the amines and the reflexes have been summarised.

DMPP = assay: Effect on the amines and reflexes: DMPP; details: in vivo
Excerpt: as §1

acetylcholine = assay: Effect on the amines and reflexes: acetylcholine; details: in vivo
Excerpt: as §1

adrenergic receptors [13] = assay: Inhibition/reversal of tension effects of adrenalin, intravenous (products of Examples 11 to 13); format: in vivo; details: i.v.
Experimental: the doses of CRL 40,150 from 0.5 to 4 mg/kg being administered successively.

adrenalin = assay: Effect on the amines and reflexes: adrenalin; details: in vivo
Excerpt: as §1

[14] = Acute intravenous toxicity in mice, products of Examples 10 to 13 (LD50); details: mouse, in vivo, i.v., group consisting solely of female mice
Excerpt: (a) determined on a group of male and female mice,
(b) determined on a group consisting solely of female mice.

peripheral vagus = assay: Effect on the amines and reflexes: stimulation of the peripheral vagus; details: in vivo
Excerpt: as §1

[15] = another test, 2 mg/kg at the very start

SMILES: OCCN1CCN(CC2COc3ccccc3O2)CC1 (stereo not drawn) [Example 1, 1-[2-(1,4-Benzodioxanyl)-methyl]-4-(2-hydroxyethyl)-piperazine dihydrochloride]
α-blocking activity (adrenergic receptors [1]): α-blocking when administered parenterally

SMILES: OCCN1CCN(CC2COc3ccccc3O2)CC1 (stereo not drawn) [Example 2, 1-[2-(1,4-Benzodioxanyl)-methyl]-4-(2-hydroxyethyl)-piperazine hemifumarate]
effect of the stimulation of the peripheral vagus (adrenergic receptors [2]; dogs): does not alter
effects of the injection of acetylcholine (adrenergic receptors [2]; dogs): does not alter
effects of the injection of isoprenalin (adrenergic receptors [2]; dogs): does not alter
α-lytic action (summary) (adrenergic receptors [2]; summary): acts as an α-lytic product
increase in flow rate (vertebral artery; 10 mg/kg): 37%
increase in flow rate (vertebral artery; 20 mg/kg): 27%
effect on vertebral flow rate (vertebral artery; doses less than 1 mg/kg): no effect
duration of increase in vertebral flow rate [3, 15]: more than one hour
flow rate of the femoral artery [3, 15]: only increased greatly during the injection
increase in flow rate of the vertebral artery [3, 15]: 87%
increase in vertebral flow rate ([3]; first test, end of perfusion): 14%
increase in vertebral flow rate ([3]; first test, start of perfusion): 90%
effect of additional injections on the flow rate ([3]; first test, additional 0.5 and 5 mg/kg): no effect on the flow rate
effect of subsequent injections on the flow rate ([3]; second test, subsequent 1 and 2 mg/kg): no effect on the flow rate
vasodilating action (summary) ([3]; summary): can dilate either the vertebral artery or the femoral artery or both
femoral flow rate ([3]; third test, 0.5, 1, 2 and 4 mg/kg i.v. without stopping): increased very much by the first injection, decreases during the subsequent injections
increase in coronary flow rate (dogs [4]; 5 mg/kg i.v., 2 hours after the injection): 75%
increase in coronary flow rate, maximum effect (dogs [4]; 5 mg/kg i.v., after 1 hour): 200%
increase in maximum intraventricular pressure (dogs [4]; 5 mg/kg i.v., for 1 hour): 56%
increase in the differential arterial pressure (dogs [4]; 5 mg/kg i.v., for 1 hour): 40%
increase in ratio dp/dt (dogs [4]; 5 mg/kg i.v., for more than 1 hour): 180%
tachycardia (dogs [4]; 5 mg/kg i.v., increase): 40%
effect on arterial pressure (summary) (dogs [4]; at a higher dose): at a higher dose, it is hypotensive
tachycardiac properties (summary) (dogs [4]; at low doses): possesses tachycardiac properties at low doses
cardiac work and coronary irrigation (summary) (dogs [4]; summary): increases the cardiac work and, in parallel fashion, it increases the coronary irrigation
hypertensive effects of adrenalin (adrenergic receptors [5]; 5 mg/kg): decreases the said effects
hypertensive effects of adrenalin (adrenergic receptors [5]; 7 mg/kg): inhibits them strongly
α + effect of adrenalin (adrenergic receptors [5]; 10 mg/kg): overcomes the α + effect of adrenalin
effect on arterial pressure AP (femoral artery; injection into femoral artery, 1, 10 and 20 mg/kg): no effect
effect on flow rate of the femoral artery (femoral artery; injection into femoral artery, doses less than 100 μg/kg): no effect
clinical result (man [6]): good results

SMILES: OCC(O)CN1CCN(CC2COc3ccccc3O2)CC1 (stereo not drawn) [Example 3, 1-[2-(1,4-Benzodioxanyl)-methyl]-4-(2,3-dihydroxypropyl)-piperazine dihydrochloride]
result in vascular complaints (man [7]): good results in vascular complaints
α-blocking action (conclusion) (adrenergic receptors [8]; conclusion): α-blocking agent
hypertensive effect of adrenalin (adrenergic receptors [8]; intraduodenal, 10 mg/kg): reversal of the hypertensive effect of adrenalin
effect on the AP (dogs [9]; i.v., 1 mg to 13 mg/kg): little effect on the AP or a slight hypotension
vertebral flow rate (dogs [9]; i.v., 1 mg to 13 mg/kg): no effect
cardiovascular variations after intraduodenal administration (dogs [9]; intraduodenal, 10 and 50 mg/kg): the variations described after intravenous injection are found again

passage into the general circulation ([12]; 10 mg/kg): passes into the general circulation
SMILES: c1cnc(N2CCN(CC3COc4ccccc4O3)CC2)nc1 (stereo not drawn) [Example 8, 1-[2-(1,4-Benzodioxanyl)-methyl]-4-(2-pyrimidinyl)-piperazine dihydrochloride]
hypertensive effect of adrenalin (adrenergic receptors [10]): the hypertensive effect of adrenalin is reversed, and this manifests itself in an α-blocking action
decrease in the vertebral flow rate (dogs [11]): 19%
effect on the mesenteric flow rate (dogs [11]): practically no effect
increase in the differential arterial pressure (dogs [11]): 50%
femoral vasodilating effect (dogs [11]; increase): 19%
tachycardia (dogs [11]; increase): 19%
rise in femoral flow rate ([12]; 1 to 10 mg/kg, for 30 minutes): 200%
rise in vertebral flow rate ([12]; 1 to 10 mg/kg, for 30 minutes): 60%
flow rate of the femoral artery ([12]; doses less than 100 μg/kg): does not alter
flow rate of the vertebral artery ([12]; doses less than 100 μg/kg): does not alter

SMILES: COc1cc(OC)c(C(=O)CN2CCN(CC3COc4ccccc4O3)CC2)c(OC)c1 (stereo not drawn) [Example 13, 1-[2-(1,4-Benzodioxanyl)-methyl]-4-(2,4,6-trimethoxyphenacyl)-piperazine dihydrochloride]
Effect on the amines and reflexes: stimulation of the central vagus (central vagus): slightly reduced
Effect on the amines and reflexes: DMPP (DMPP): effect reversed
Effect on the amines and reflexes: acetylcholine (acetylcholine): no change
dose from which the hypertensive effect of adrenalin is reduced (adrenergic receptors [13]): ≥ 0.1 mg/kg
dose from which the hypotensive effect appears (adrenergic receptors [13]; average of three different experiments): ≥ 0.2 mg/kg
Effect on the amines and reflexes: adrenalin (adrenalin): reversal
LD50 [14]: 58 mg/kg
Effect on the amines and reflexes: stimulation of the peripheral vagus (peripheral vagus): not changed
